Like-named read-outs stand apart in the source and are kept apart here.
Experiments:
[1] = target: T1, glutathione-S-transferase (GST) tagged LXRalpha LBD (ligand binding domain) (Homo sapiens, UniProt Q13133); assay: LanthaScreen TR-FRET Liver X Receptor Coactivator Assay, co-activator recruitment to LXRalpha LBD; type: biochemical; conditions: for LXR alpha Activity @ max dose (%) / Emax: efficacy at max dose, in relation to reference dual agonist T0901317; for LXR alpha IP (nM) / EC50: potency (Inflection Point, IP), co-activator recruitment to LXRalpha LBD, in relation to T0901317; for Emax: read-out: LXR alpha Activity @ max dose (%); for EC50: read-out: LXR alpha IP
T1 construct: purchased Invitrogen pv4655
T1 sequence (Q13133 209-447 limits assumed): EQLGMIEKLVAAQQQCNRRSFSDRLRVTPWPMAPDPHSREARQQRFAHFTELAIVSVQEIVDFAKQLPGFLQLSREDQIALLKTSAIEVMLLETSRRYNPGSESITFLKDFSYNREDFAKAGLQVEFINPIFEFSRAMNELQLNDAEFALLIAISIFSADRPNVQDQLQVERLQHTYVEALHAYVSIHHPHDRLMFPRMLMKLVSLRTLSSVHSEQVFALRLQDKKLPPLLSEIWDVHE
Method in brief: (§1)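 TR-FRET coactivator recruitment; compound + LBD, then fluorescein-coactivator peptide/Tb-anti-GST Ab mix; RT incubation; IP and Emax vs T0901317.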

[2] = target: T2, glutathione-S-transferase (GST) tagged LXRbeta LBD (ligand binding domain) (Homo sapiens, UniProt P55055); assay: LanthaScreen TR-FRET Liver X Receptor Coactivator Assay, co-activator recruitment to LXRbeta LBD; type: biochemical; conditions: for EC50: potency (Inflection Point, IP), co-activator recruitment to LXRbeta LBD, in relation to T0901317; for Emax: read-out: LXR beta Activity @ max dose (%)
T2 construct: purchased Invitrogen pv4658.pps
T2 sequence (P55055 222-460 limits assumed): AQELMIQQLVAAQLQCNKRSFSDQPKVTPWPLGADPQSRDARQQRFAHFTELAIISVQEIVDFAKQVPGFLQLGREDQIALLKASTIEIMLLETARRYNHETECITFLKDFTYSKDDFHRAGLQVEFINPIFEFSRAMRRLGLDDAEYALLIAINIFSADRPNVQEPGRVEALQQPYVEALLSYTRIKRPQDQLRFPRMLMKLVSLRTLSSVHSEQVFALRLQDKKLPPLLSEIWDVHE
Method in brief: as §1

[3] = efficacy at max dose, in relation to reference dual agonist T0901317

Structure (SMILES)	LXR alpha Activity @ max dose (%) [1] [%]	LXR alpha IP (nM) [1]	LXR beta Activity @ max dose (%) [2, 3] [%]	EC50 ([2]; read-out: LXR beta IP) [nM]	Emax [1] [%]	Emax [2, 3] [%]	EC50 [1] [nM]	EC50 ([2]; LXR beta IP (nM)) [nM]	Emax [2] [%]
CN(C)C(=O)c1ccc(N2CCC(CC3CN(C(=O)[C@](O)(c4cccc(OC(F)(F)F)c4)C(F)(F)F)C3)CC2)cc1Cl [Example 2-68, 2-chloro-N,N-dimethyl-4-{4-[(1-{(2R)-3,3,3-trifluoro-2-hydroxy-2-[3-(trifluoro-methoxy)phenyl]propanoyl}azetidin-3-yl)methyl]piperidin-1-yl}benzamide]	16	NO IP	63	22	–	–	–	–	–
Cc1cc(N2CCC(CC3CCN(C(=O)[C@](O)(c4cccc(C(C)C)c4)C(F)(F)F)CC3)CC2)ccc1C(=O)N(C)C [Example 2-149, N,N,2-trimethyl-4-{4-[(1-{(2R)-3,3,3-trifluoro-2-hydroxy-2-[3-(1-methyl-ethyl)phenyl]propanoyl}piperidin-4-yl)methyl]piperidin-1-yl}benzamide]	–	NO IP	–	20	14	54	–	–	–
Cc1cc(N2CCC(CC3CCN(C(=O)OC(C)(C)C)CC3)CC2)ccc1C(=O)N(C)C [Example 1-2, tert-butyl 4-({1-[4-(dimethylcarbamoyl)-3-methylphenyl]piperidin-4-yl}methyl)piperidine-1-carboxylate]	–	NO IP	–	240	13	58	–	–	–
CCc1cccc(C(O)(C(=O)N2CCC(CC3CCN(c4ccc(C(=O)N(C)C)c(Cl)c4)CC3)CC2)C(F)(F)F)c1 (stereo not shown) [Example 2-39, 2-chloro-4-[4-({1-[2-(3-ethylphenyl)-3,3,3-trifluoro-2-hydroxy-propanoyl]piperidin-4-yl}methyl)piperidin-1-yl]-N,N-dimethyl-benzamide]	–	–	–	36	2	30	1780	–	–
CN(C)C(=O)c1ccc(N2CCC(CC3CCN(C(=O)C4(c5ccccc5)CCCC4)CC3)CC2)cc1Cl [Example 2-10, 2-chloro-N,N-dimethyl-4-[4-({1-[(1-phenyl-cyclopentyl)carbonyl]piperidin-4-yl}methyl)piperidin-1-yl] benzamide]	–	NO IP	–	50	0	60	–	–	–
COc1cc(F)cc([C@@](O)(C(=O)N2CC(CC3CCN(c4ccc(C(=O)N(C)C)c(Cl)c4)CC3)C2)C(F)(F)F)c1 [Example 2-61, 2-chloro-N,N-dimethyl-4-[4-({1-[(2R)-3,3,3-trifluoro-2-(3-fluoro-5-methoxyphenyl)-2-hydroxy-propanoyl]azetidin-3-yl}methyl)piperidin-1-yl]benzamide]	–	–	–	7	21	74	277	–	–
CN(C)C(=O)c1ccc(N2CCC(CC3CCN(C(=O)C(O)(c4ccc(Cl)cc4)C(F)(F)F)CC3)CC2)cc1Cl (stereo not shown) [Example 2-15, 2-chloro-4-[4-({1-[2-(4-chlorophenyl)-3,3,3-trifluoro-2-hydroxy-propanoyl]piperidin-4-yl}methyl)piperidin-1-yl]-N,N-dimethyl-benzamide]	–	NO IP	–	298	0	26	–	–	–
O=C(c1ccc(N2CCC(OC3CCN(C(=O)[C@](O)(c4ccccc4)C(F)(F)F)CC3)CC2)cc1Cl)N1CCC[C@H]1CO [Example 4-7, (2R)-3-(4-{[1-(3-chloro-4-{[(2S)-2-(hydroxy-methyl)pyrrolidin-1-yl]carbonyl}phenyl)piperidin-4-yl]oxy}piperidin-1-yl)-1,1,1-trifluoro-3-oxo-2-phenylpropan-2-ol]	–	–	–	31	50	76	516	–	–
CNC(=O)c1ccc(N2CCC(SC3CCN(C(=O)[C@](O)(c4cccc(OC)c4)C(F)(F)F)CC3)CC2)nc1Cl [Example 11-1, (R)-2-chloro-N-methyl-6-(4-(1-(3,3,3-trifluoro-2-hydroxy-2-(3-methoxyphenyl)propanoyl)piperidin-4-ylthio)piperidin-1-yl)nicotinamide]	–	NO IP	–	–	17	–	–	17	93
CCc1cccc([C@@](O)(C(=O)N2CCC(CC3CCN(c4ccc(C(=O)N(C)C)cc4)CC3)CC2)C(F)(F)F)c1 [Example 2-141, 4-[4-({1-[(2R)-2-(3-ethyl-phenyl)-3,3,3-trifluoro-2-hydroxy-propanoyl]piperidin-4-yl}methyl)piperidin-1-yl]-N,N-dimethyl-benzamide]	–	NO IP	–	74	12	51	–	–	–
COc1cccc([C@@](O)(C(=O)N2CCC(CC3CCN(c4ccc(C(=O)N(C)C)c(Cl)c4)CC3)CC2)C(F)(F)F)n1 (stereo in doubt) [Example 2-165, 2-chloro-N,N-dimethyl-4-[4-({1-[3,3,3-trifluoro-2-hydroxy-2-(6-methoxy-pyridin-2-yl)propanoyl]piperidin-4-yl}methyl)piperidin-1-yl]benzamide]	–	NO IP	–	2.5	18	108	–	–	–

Further lines, with some results ahead:

LXR alpha Activity @ max dose (%) [1] [%]	LXR alpha IP (nM) [1]	LXR beta Activity @ max dose (%) [2, 3] [%]	EC50 ([2]; read-out: LXR beta IP) [nM]	Emax [1] [%]	Emax [2, 3] [%]	EC50 [1] [nM]	Structure (SMILES)	EC50 ([2]; LXR beta IP (nM)) [nM]	Emax [2] [%]
–	NO IP	–	4	15	52	–	Cc1cccc([C@@](O)(C(=O)N2CCC(CC3CCN(c4ccc(C(=O)N(C)C)c(Cl)n4)CC3)CC2)C(F)(F)F)c1 [Example 7-88, 2-chloro-N,N-dimethyl-6-[4-({1-[(2R)-3,3,3-trifluoro-2-hydroxy-2-(3-methylphenyl)propanoyl]piperidin-4-yl}methyl)piperidin-1-yl]pyridine-3-carboxamide]	–	–
–	–	–	11	35	110	525	CN(C)C(=O)c1ccc(N2CCC(CC3CN(C(=O)[C@](O)(c4cccc(Cl)c4)C(F)(F)F)C3)CC2)nc1Cl [Example 7-41, 2-chloro-6-[4-({1-[(2R)-2-(3-chlorophenyl)-3,3,3-trifluoro-2-hydroxypropanoyl]azetidin-3-yl}methyl)piperidin-1-yl]-N,N-dimethylpyridine-3-carboxamide]	–	–
–	NO IP	–	118	10	54	–	CN(C)C(=O)c1ccc(N2CCC(CC3CCN(C(=O)[C@@](N)(c4ccccc4)C(F)(F)F)CC3)CC2)nc1Cl [Example 7-110, 6-[4-({1-[(2S)-2-amino-3,3,3-trifluoro-2-phenylpropanoyl]piperidin-4-yl}methyl)piperidin-1-yl]-2-chloro-N,N-dimethylpyridine-3-carboxamide]	–	–
–	–	–	12	32	82	182	CNC(=O)c1ccc(N2CCC(CC3CCN(C(=O)[C@](O)(c4cccc(Br)c4)C(F)(F)F)CC3)CC2)cc1Cl [Example 7-119, 4-[4-({1-[(2R)-2-(3-bromophenyl)-3,3,3-trifluoro-2-hydroxypropanoyl]piperidin-4-yl}methyl)piperidin-1-yl]-2-chloro-N-methyl-benzamide]	–	–
–	–	–	4	63	100	51	CNC(=O)c1ccc(N2CCC(CC3CCN(C(=O)[C@](O)(c4cccc(Cl)c4)C(F)(F)F)CC3)CC2)nc1Cl [Example 7-147, 2-chloro-6-[4-({1-[(2R)-2-(3-chlorophenyl)-3,3,3-trifluoro-2-hydroxypropanoyl]piperidin-4-yl}methyl)piperidin-1-yl]-N-methylpyridine-3-carboxamide]	–	–
46	–	91	19	–	–	455	CNC(=O)c1ccc(N2CCC(CC3CCN(C(=O)[C@](O)(c4ccccc4)C(F)(F)F)CC3)CC2)cc1Cl [Example 7-126, 2-chloro-N-methyl-4-[4-({1-[(2R)-3,3,3-trifluoro-2-hydroxy-2-phenylpropanoyl]piperidin-4-yl}methyl)piperidin-1-yl]benzamide]	–	–
–	NO IP	–	136	1	67	–	CNC(=O)c1ccc(N2CCC(CC3CN(C(=O)[C@](O)(c4cccc(OC)c4)C(F)(F)F)C3)CC2)cc1Cl [Example 7-38, 2-chloro-N-methyl-4-[4-({1-[(2R)-3,3,3-trifluoro-2-hydroxy-2-(3-methoxyphenyl)propanoyl]azetidin-3-yl}methyl)piperidin-1-yl]benzamide]	–	–
–	–	–	446	27	113	4390	CNC(=O)c1ccc(N2CCC(OC3CCN(C(=O)C4(c5ccccc5F)CCCC4)CC3)CC2)cc1Cl [Example 7-27, 2-chloro-4-{4-[(1-{[1-(2-fluorophenyl)cyclopentyl]carbonyl}piperidin-4-yl)oxy]piperidin-1-yl}-N-methylbenzamide]	–	–
